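A five-concentration, 48-hour dose response in 96-well plates underlies each endpoint, interpolated linearly between surrounding concentrations. At the GI50, growth is halved. At the TGI there is no net growth.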
Experiments:
Assay in all cases: inhibition of tumour cell growth, NCI panel, 48 h
[1] = system: HCC-2998 colon
[2] = system: HT29 colon
[3] = system: MOLT-4 leukemia
[4] = system: NCI-H226 lung
[5] = system: OVCAR-3 ovarian
[6] = system: OVCAR-5 ovarian
[7] = system: SK-MEL-5 melanoma
[8] = system: SN12C renal
[9] = system: SNB-19 CNS
[10] = system: SNB-75 CNS

| SMILES | GI50 [1] | TGI [1] | GI50 [2] | TGI [2] | GI50 [3] | TGI [3] | GI50 [4] | TGI [4] | GI50 [5] | TGI [5] | GI50 [6] | TGI [6] | GI50 [7] | TGI [7] | GI50 [8] | TGI [8] | GI50 [9] | TGI [9] | GI50 [10] | TGI [10] |
| --- | --- | --- | --- | --- | --- | --- | --- | --- | --- | --- | --- | --- | --- | --- | --- | --- | --- | --- | --- | --- |
| CC(=O)[O-].CC(=O)[O-].[NH2-].[Pt+2].c1ccc2cnccc2c1 | > 100 µM | > 100 µM | 24.5 µM | > 100 µM | 1.4 µM | 27.3 µM | 47.4 µM | > 100 µM | 42.2 µM | > 100 µM | > 100 µM | > 100 µM | 38.4 µM | > 100 µM | 28.6 µM | > 100 µM | > 100 µM | > 100 µM | > 100 µM | > 100 µM |
| CC(CNC(Cc1ccccc1)c1ccccc1)NC(Cc1ccccc1)c1ccccc1 (stereo not given) | 2.03 µM | 4.45 µM | 1.97 µM | 4.04 µM | 2.06 µM | 6.03 µM | 1.94 µM | 4.09 µM | 2.07 µM | 4.56 µM | 2.73 µM | 8.76 µM | 1.79 µM | 3.23 µM | 2.22 µM | 6.38 µM | 3.19 µM | 13.5 µM | 2.07 µM | 11.7 µM |
| COc1cc([C@@H]2c3cc4c(cc3[C@@H](NC(=O)c3ccccc3)C3COC(=O)[C@@H]32)OCO4)cc(OC)c1O (stereo not given in full) | – | 35.4 µM | – | 22 µM | – | 9.18 µM | – | 8.28 µM | – | 56.7 µM | – | > 100 µM | – | 14.1 µM | – | 9.81 µM | – | > 100 µM | – | 38 µM |
| COc1ccc2oc3cccc(NCCN(C)C)c3c(=O)c2c1 | – | 21.9 µM | – | 20.3 µM | – | 12.7 µM | – | 32 µM | – | 28.5 µM | – | 24.9 µM | – | 30.9 µM | – | 23.3 µM | – | 28.9 µM | – | 31 µM |
| CC1OC2CC(=O)OC2C2=C1C(=O)c1c(O)c3c(c(O)c1C2=O)C1CC(O)C3(O)C(C)O1 (stereo not given) | 0.442 µM | 1.67 µM | 0.229 µM | 1.14 µM | 0.244 µM | 0.64 µM | 0.974 µM | 3.18 µM | 0.207 µM | 0.629 µM | 0.292 µM | 0.879 µM | 1.23 µM | 2.5 µM | 0.211 µM | 0.539 µM | 1.94 µM | 5.84 µM | 1.59 µM | 3.64 µM |
| O=C1/C(=C/c2ccc(O)cc2)COc2ccc(-c3ccccc3)cc21 | 4.08 µM | 11.2 µM | 3.35 µM | 11.5 µM | 1.62 µM | > 32.5 µM | 16.1 µM | 39.2 µM | 2.49 µM | 8.14 µM | 17.8 µM | 33.8 µM | 8.67 µM | 22.9 µM | 7.29 µM | 24.8 µM | 15.7 µM | 37.3 µM | 5.17 µM | 15.5 µM |
| O=C(CCl)N1c2ccccc2Sc2c1ccc1ccccc21 | 2.02 µM | 3.59 µM | 3.58 µM | 15.5 µM | 2.49 µM | > 100 µM | 2.21 µM | 5.26 µM | 1.86 µM | 3.26 µM | 2.16 µM | 5.07 µM | 1.73 µM | 3.15 µM | 1.79 µM | 3.27 µM | 4.37 µM | 15.1 µM | 2.45 µM | 7.78 µM |
| CN(CCOc1ccc(C#N)cc1)CCOc1ccc(C#N)cc1 | > 100 µM | > 100 µM | > 100 µM | > 100 µM | 15.1 µM | 68.7 µM | > 100 µM | > 100 µM | 29.8 µM | > 100 µM | > 100 µM | > 100 µM | 78.6 µM | > 100 µM | > 100 µM | > 100 µM | > 100 µM | > 100 µM | > 100 µM | > 100 µM |
| COc1ccc(-c2cn(-c3ccccc3)c(-c3ccccc3)n2)cc1OC | 6.39 µM | 20.7 µM | 4.5 µM | > 100 µM | 2.96 µM | 10.9 µM | 15 µM | 40.3 µM | 2.2 µM | 5.07 µM | 7.33 µM | 20.9 µM | 8.03 µM | 20.7 µM | 5.2 µM | 17.8 µM | 7.5 µM | 21.1 µM | 13.6 µM | 28.5 µM |
| COc1ccc(O)c(C#N)c1C#N | – | > 100 µM | – | > 100 µM | – | > 100 µM | – | > 100 µM | – | > 100 µM | – | > 100 µM | – | > 100 µM | – | > 100 µM | – | > 100 µM | – | > 100 µM |
| CC[C@H](CC#N)OC(=O)N[C@@H](C)c1cccc(NC(=O)Nc2ccc(-c3cnco3)c(OC)c2)c1 | 0.142 µM | 51.6 µM | < 0.0199 µM | 21.7 µM | 0.0403 µM | 13.8 µM | 2 µM | 38.4 µM | 0.0894 µM | 45 µM | 0.623 µM | > 84.5 µM | 0.18 µM | 16.4 µM | 0.111 µM | 79.3 µM | 0.125 µM | > 100 µM | 0.11 µM | 27.8 µM |
| CC(=O)n1c2ccccc2c2nc3nc(Oc4ccc(C)cc4)c4ccccc4c3cc21 | – | > 100 µM | – | > 100 µM | – | > 100 µM | – | > 100 µM | – | > 100 µM | – | > 100 µM | – | > 100 µM | – | > 100 µM | – | > 100 µM | – | > 100 µM |
| CN(C)CCCN1CCc2c([nH]c3ccccc23)C1c1cccnc1 (stereo not given) | – | > 100 µM | – | > 100 µM | – | > 100 µM | – | > 100 µM | – | > 100 µM | – | > 100 µM | – | > 100 µM | – | > 100 µM | – | > 100 µM | – | > 100 µM |
| Clc1nc(Cl)c2ncn(Cc3ccc(COc4cccc(OCc5ccc(Cn6cnc7c(Cl)nc(Cl)nc76)cc5)c4)cc3)c2n1 | 17.9 µM | 35.8 µM | > 100 µM | > 100 µM | 8.6 µM | > 100 µM | 21 µM | 60.3 µM | 10.7 µM | 56.6 µM | 49.8 µM | > 100 µM | 14.3 µM | 95.5 µM | 92.4 µM | > 100 µM | > 100 µM | > 100 µM | 8.39 µM | > 100 µM |
